From ChEMBL document CHEMBL4613276, “Discovery of New 1,1'-Biphenyl-4-sulfonamides as Selective Subnanomolar Human Carbonic Anhydrase II Inhibitors” (ACS Med Chem Lett, 2020)

How the values were obtained:
Carbonic anhydrase 1 = Carbonic anhydrase 1 (Homo sapiens, UniProt P00915); experiment: Inhibition of recombinant human carbonic anhydrase 1 preincubated with enzyme for 10 mins by phenol red dye based stopped flow CO2 hydration assay
Carbonic anhydrase 2 = Carbonic anhydrase 2 (Homo sapiens, UniProt P00918); experiment: Inhibition of recombinant human carbonic anhydrase 2 preincubated with enzyme for 10 mins by phenol red dye based stopped flow CO2 hydration assay
Carbonic anhydrase 9 = Carbonic anhydrase 9 (Homo sapiens, UniProt Q16790)
Description: Inhibition of recombinant human carbonic anhydrase 9 preincubated with enzyme for 10 mins by phenol red dye based stopped flow CO2 hydration assay

Sequence of Carbonic anhydrase 1 (P00915 whole entry): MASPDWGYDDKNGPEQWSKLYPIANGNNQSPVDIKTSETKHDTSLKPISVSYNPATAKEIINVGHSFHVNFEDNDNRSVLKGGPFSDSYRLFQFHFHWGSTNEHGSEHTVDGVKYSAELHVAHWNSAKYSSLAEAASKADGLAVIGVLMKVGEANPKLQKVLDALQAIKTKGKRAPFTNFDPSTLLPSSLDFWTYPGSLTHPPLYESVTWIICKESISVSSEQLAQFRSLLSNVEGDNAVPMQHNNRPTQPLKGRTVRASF

SMILES | Ki (Carbonic anhydrase 1) [nM] | Ki (Carbonic anhydrase 2) [nM] | Ki (Carbonic anhydrase 9) [nM]
Nc1cccc(C(O)c2ccc(-c3ccc(S(N)(=O)=O)cc3)cc2)c1 (stereo not drawn) | 33.1 | 0.78 | 464
Nc1cccc(C(=O)c2ccc(-c3ccc(S(N)(=O)=O)cc3)cc2)c1 | 87.3 | 9.8 | 266
NS(=O)(=O)c1ccc(-c2ccc(C3OC(=O)c4ccccc43)cc2)cc1 (stereo not drawn) | 80.1 | 0.7 | 249
Nc1cccc(Cc2ccc(-c3ccc(S(N)(=O)=O)cc3)cc2)c1 | 5.9 | 0.92 | 556
NS(=O)(=O)c1ccc(-c2ccc(C(=O)c3ccccc3C(=O)O)cc2)cc1 | 39.4 | 0.83 | 469
NS(=O)(=O)c1ccc(-c2ccc(Cc3ccccc3C(=O)O)cc2)cc1 | 6.8 | 0.69 | 437
NS(=O)(=O)c1ccc(-c2ccc(C(O)c3cccc(C(=O)O)c3)cc2)cc1 (stereo not drawn) | 6.9 | 0.83 | 88.4
Nc1ccccc1C(=O)c1ccc(-c2ccc(S(N)(=O)=O)cc2)cc1 | 218 | 31 | 289
NS(=O)(=O)c1ccc(-c2ccc(C(=O)c3cccc(C(=O)O)c3)cc2)cc1 | 7.3 | 0.94 | 491
Nc1ccccc1C(O)c1ccc(-c2ccc(S(N)(=O)=O)cc2)cc1 (stereo not drawn) | 8.4 | 0.97 | 92
NS(=O)(=O)c1ccc(-c2ccc(Cc3cccc(C(=O)O)c3)cc2)cc1 | 21.3 | 0.57 | 323
